These results are taken from ChEMBL document CHEMBL1201862, “PubChem BioAssay data set” (2004).

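1) Cells in 96-well plates. 2) Compound, 48 h, 5 concentrations. 3) Linear interpolation between surrounding doses. 4) Unreached endpoint = highest concentration. GI50 marks 50% less growth.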 The source made the active and inactive calls. Rule as the data show it: active = GI50 up to about 1.1 µM and inactive = higher.

Assay in all cases: NCI tumour cell line growth inhibition, 48 h
In assay [1] the test system is SW-620.
For assay [2], the system named is SF-539.
Assay [3] has as its system HCT-15.
The test system of assay [4] is CCRF-CEM.
Assay [5] has as its system HCT-116.
Assay [6] deals with EKVX.
For assay [7], the system named is MCF7.
The subject of assay [8] is RXF 393.
For assay [9], the system named is COLO 205.
The subject of assay [10] is OVCAR-4.
The subject of assay [11] is DU-145.
The subject of assay [12] is UACC-62.
For assay [13], the system named is CAKI-1.
The subject of assay [14] is TK-10.
Assay [15] relates to SK-OV-3.
The subject of assay [16] is HT-29.
In assay [17] the test system is ACHN.
Assay [18] deals with MDA-N.

For `CSC1=C(C(=O)Nc2ccc(Cl)cc2)C(N)=NC1=O`, the GI50 in assay [1] is > 100 µM (inactive); in assay [2], > 100 µM (inactive); in assay [3], over 100 µM; in assay [4], > 100 µM (inactive); in assay [5], > 100 µM (inactive); in [6], > 100 µM (inactive). Further, the GI50 in assay [7], in assay [8], in assay [9], in assay [10], in assay [11] and in [12] was > 100 µM (inactive) throughout. Further, the GI50 is 29 µM (inactive) in [13], > 100 µM (inactive) in assay [14], > 100 µM (inactive) in assay [15] and > 100 µM (inactive) in [16].
Regarding `CC(C)=C1C(=O)C[C@]2(C)C/C=C(\C)CC/C=C(\C)CC[C@@H]12`, the GI50 was 9.31 µM (inactive) in [1]; 8.57 µM (inactive) in assay [2]; 9.02 µM (inactive) in [17]; 8.28 µM in assay [3]; 9.23 µM (inactive) in [4]; 8.32 µM (inactive) in assay [5]. For the same molecule, the GI50 in assay [6] was 11.2 µM (inactive); in [7], 11.5 µM (inactive); in assay [8], 7.29 µM (inactive); in assay [9], 8.51 µM (inactive); in [10], 15.3 µM (inactive); in assay [11], 16.7 µM (inactive). The GI50 in assay [12] was 7.74 µM (inactive); in assay [13], 7.96 µM (inactive); in [14], 9.42 µM (inactive); in [15], 18.9 µM (inactive); in assay [16] it was 9.08 µM (inactive).
In the case of `OC1(c2ccccc2)C2CCN(CC2)C1CN1CCOCC1` (stereo not given), the GI50 in assay [1] is > 100 µM (inactive); in assay [2] it was > 100 µM (inactive); in assay [17], > 100 µM (inactive); in [3], over 100 µM; in assay [4] it was > 100 µM (inactive); in assay [5] it was > 100 µM (inactive). For the same molecule, the GI50 in [6], in assay [7], in assay [8], in [9], in [10] and in assay [11] was > 100 µM (inactive) in each case. In addition, the GI50 in assay [12], in assay [13], in assay [14], in [15] and in assay [16] was > 100 µM (inactive) throughout.
For the molecule `Cc1cc2c(cc1N)C(C)C1(CCC(=O)N2Cc2ccccc2)OCCO1` (stereo not given), the GI50 in assay [1] was > 100 µM (inactive); in assay [2], > 100 µM (inactive); in [17], > 100 µM (inactive); in assay [3], over 100 µM; in assay [5], > 100 µM (inactive); in assay [6] it was > 100 µM (inactive). Further, the GI50 in assay [7], in [10], in assay [18], in [11], in assay [12] and in assay [13] was > 100 µM (inactive) throughout. Besides, the GI50 in assay [14], in assay [15] and in [16] was > 100 µM (inactive) in each case.
For the molecule `O=C(O)CNC(=O)c1c2ccccc2nc2ccccc12`, the GI50 in assay [1] is > 100 µM (inactive); in [2], > 100 µM (inactive); in [17], > 100 µM (inactive); in assay [3], over 100 µM; in [4] it was > 100 µM (inactive); in [5] it was > 100 µM (inactive). Also, the GI50 in assay [6], in assay [7], in assay [9], in [10], in [11] and in [12] was > 100 µM (inactive) throughout. Also, the GI50 in assay [13], in assay [14], in assay [15] and in assay [16] was > 100 µM (inactive) in each case.
In the case of `C/C(=N\NC(=O)C[n+]1ccccc1)c1sc(-c2nc(C)c(/C(C)=N/NC(=O)C[n+]3ccccc3)s2)nc1C`, the GI50 is > 100 µM (inactive) in [1]; > 100 µM (inactive) in assay [2]; > 100 µM (inactive) in [17]; 37.7 µM in assay [3]; > 10 µM (inactive) in assay [4]; 68.5 µM (inactive) in assay [5]. Also, the GI50 in assay [6] is > 100 µM (inactive); in assay [8] it was > 100 µM (inactive); in assay [9], > 100 µM (inactive); in assay [12], 65 µM (inactive); in [13] it was > 100 µM (inactive); in assay [14] it was > 100 µM (inactive). Moreover, the GI50 was > 100 µM (inactive) in [15] and 36.3 µM (inactive) in assay [16].
Consider `CC(/C=N/N=C1NCCCN1)=N\N=C1NCCCN1`, for which the GI50 is > 100 µM (inactive) in [1]; > 100 µM (inactive) in assay [2]; > 100 µM (inactive) in [17]; over 100 µM in [3]; > 100 µM (inactive) in assay [4]; > 100 µM (inactive) in assay [5]. Besides, the GI50 in [6], in assay [7], in [8], in assay [9], in [10] and in assay [18] was > 100 µM (inactive) in each case. Also, the GI50 in [12], in [13], in assay [14], in assay [15] and in [16] was > 100 µM (inactive) each time.
`O=C(c1ccncc1)C1C(=O)c2ccccc2C1C1(O)c2ccccc2CC1C(O)c1ccncc1` (stereo not given): the GI50 in assay [1] was 71.8 µM (inactive); in assay [2], 77.6 µM (inactive); in assay [17] it was 62.1 µM (inactive); in assay [3], 41.3 µM; in assay [5], 28.2 µM (inactive); in assay [6], 33 µM (inactive). Further, the GI50 was 39.6 µM (inactive) in assay [7]; 39.6 µM (inactive) in [8]; 47.6 µM (inactive) in assay [9]; 27.9 µM (inactive) in assay [10]; 13.3 µM (inactive) in [18]; 18.7 µM (inactive) in assay [12]. Moreover, the GI50 in assay [13] was 34.7 µM (inactive); in assay [14], 90.8 µM (inactive); in assay [15] it was 7.96 µM (inactive); in assay [16] it was 35.6 µM (inactive).
Regarding `N#Cc1c(-c2ccccc2)c(/C=N/c2ccc(Cl)cc2)c(=O)n2c1[nH]c1ccccc12`, the GI50 in assay [1] was > 100 µM (inactive); in [2], > 100 µM (inactive); in assay [17] it was 65.2 µM (inactive); in [3] it was over 100 µM; in assay [4] it was 21.4 µM (inactive); in assay [5], 0.424 µM (active). Moreover, the GI50 is > 100 µM (inactive) in assay [7]; > 100 µM (inactive) in assay [8]; 83 µM (inactive) in assay [9]; > 100 µM (inactive) in assay [10]; 20.4 µM (inactive) in [18]; 20.1 µM (inactive) in assay [13]. Besides, the GI50 in assay [14] and in [15] was > 100 µM (inactive) in each case.
Regarding `CN(C)CCn1c2c(c3ccccc31)CCc1ccccc1-2`, the GI50 in assay [1] is 18.8 µM (inactive); in assay [2], 13.4 µM (inactive); in assay [17], 16.3 µM (inactive); in assay [3], 10.7 µM; in [4], 18.7 µM (inactive); in assay [5], 12 µM (inactive). In addition, the GI50 in assay [6] is 17.4 µM (inactive); in assay [7], 16.8 µM (inactive); in assay [9], 11.3 µM (inactive); in assay [10] it was 14.3 µM (inactive); in assay [11], 16.1 µM (inactive); in assay [12], 13 µM (inactive). Also, the GI50 is 14.9 µM (inactive) in assay [13], 16.7 µM (inactive) in assay [14], 18.7 µM (inactive) in assay [15] and 8.99 µM (inactive) in assay [16].
`CC(C)c1ccccc1NC(=O)/C(Cl)=C1/Sc2ccccc2NC1=O`: the GI50 in assay [1] was 25.2 µM (inactive); in [2], 21.9 µM (inactive); in [17] it was 37.4 µM (inactive); in assay [3], 22.8 µM; in assay [4] it was 24.6 µM (inactive); in assay [5], 28.8 µM (inactive). For the same molecule, the GI50 in assay [6] is 49.1 µM (inactive); in [8], 13.3 µM (inactive); in assay [9], 21.4 µM (inactive); in assay [10] it was 21.9 µM (inactive); in assay [12], 20.3 µM (inactive); in assay [13], 17.5 µM (inactive). Also, the GI50 in [14] is 71.9 µM (inactive); in assay [15] it was 18.4 µM (inactive).
`CN1c2ccccc2C(=O)NC12CCN(CC1COc3ccccc3O1)CC2` (stereo not given): the GI50 in assay [1] was 77.8 µM (inactive); in assay [2], 36.4 µM (inactive); in [17] it was 19.6 µM (inactive); in assay [4], 36.1 µM (inactive); in [5] it was 37.3 µM (inactive); in assay [6] it was 51.6 µM (inactive). Besides, the GI50 was 31.8 µM (inactive) in assay [7]; > 100 µM (inactive) in assay [8]; 48.3 µM (inactive) in assay [9]; 29.9 µM (inactive) in [10]; 61 µM (inactive) in [11]; 29.7 µM (inactive) in [12]. The GI50 in [14] is 44.8 µM (inactive); in [15], > 100 µM (inactive); in assay [16], 31.9 µM (inactive).
`NNC(=O)c1nnn(CCc2ccccc2)c1C(=O)NN`: the GI50 was > 100 µM (inactive) in assay [17]; over 100 µM in [3]; > 100 µM (inactive) in assay [4]; > 100 µM (inactive) in assay [5]; > 100 µM (inactive) in assay [6]; > 100 µM (inactive) in [7]. The GI50 in [9] is > 100 µM (inactive); in [10], > 100 µM (inactive); in assay [18], > 100 µM (inactive); in assay [11], > 100 µM (inactive); in [13], > 100 µM (inactive); in assay [14], 68.2 µM (inactive). In addition, the GI50 in [16] was > 100 µM (inactive).
